In patent US11186566B2, “Modulator of cystic fibrosis transmembrane conductance regulator, pharmaceutical compositions, methods of treatment, and process for making the modulator” (Vertex Pharmaceuticals Incorporated, priority 2016, dated 2021):
Like-named read-outs stand apart in the source and are kept apart here.

Columns and labels:
[1] = target: Human Serum Albumin (HSA) (Homo sapiens (Human), UniProt P02768); assay: Chromatographic determination of Human Serum Albumin (HSA) binding; type: in vitro ADME; conditions: ChiralPak HSA column, retention time converted to % HSA
Procedure: 5B. Chromatographic Determination of Human Serum Albumin (HSA) Assay
Chromatographic determination of Human Serum Albumin (HSA) values was performed on a UPLC-MS system using a ChiralPak® HSA column (p/n: 58469AST) from Sigma Aldrich. Mobile phase A consisted of 50 mM ammonium acetate buffer in water adjusted to pH=7.4, and mobile phase B was 2-propanol. The column compartment was kept at constant temperature of 30° C. Determination of retention time on the HSA column was performed by injecting […] of 0.5 mM of compound (in DMSO) using a linear gradient from 0%-30% B in 2.5 minutes, followed by a hold at 30% B for 2 minutes, and the final equilibration step from […] in 1.5 minutes, for a total run time of 6 minutes. Flow rate was kept constant throughout the gradient and set to 1.8 mL/min. Compound retention time on the HSA column was converted to % HSA values according to a previously published protocol (Valko, et. al, 2003) correlating column retention times to standard plasma protein binding (PPB) values obtained from dialysis experiments. HSA data for certain compounds are summarized below in Table 8 below.
Valko, K., Nunhuck, S., Bevan, C., Abraham, M. H., Reynolds, D. P. Fast Gradient HPLC Method to Determine Compounds Binding to Human Serum Albumin. Relationships with Octanol/Water and Immobilized Artificial Membrane Lipophilicity. J. of Pharm. Sci. 2003, 92, 2236-2248.

[2] = target: human PXR (Homo sapiens (Human), UniProt O75469); assay: PXR assay (PXR mediated CYP3A4 induction, DPX-2 cell line); type: cell-based; conditions: DPX-2 cells, 48 hours, 0.1 to 60 μM
Procedure: 5D. Experimental Protocol for PXR Assay
The propensity for PXR mediated CYP3A4 induction is assessed using the DPX-2 cell line in vitro. This cell line, which has been licensed from Puracyp Inc. was derived from HepG2 cells and has been stably transfected with genes encoding human PXR as well as a modified luciferase reporter linked to the CYP3A4 promoter region and related distal and proximal enhancers.
The assay is run in 384 well format and each test article is administered in 11 doses ranging from 0.1 to 60 μM. On day 1, DPX-2 cells which have previously been expanded in-house and cryopreserved are thawed and seeded in tissue culture plates. The following day, media is changed and cells are cultured in media containing test article, vehicle control or the positive control compound, the clinically validated CYP3A4 inducer rifampicin. Cells are cultured in the presence of test article for 48 hours and then cell viability is assessed using fluorescence based assay (Cell Titer-Fluor, Promega) with an EnVision Plate Reader (PerkinElmer). Subsequently, CYP3A4 transactivation, which is proportional to luciferase activity, is measured by reading luminescense using the Promega One-Glo reagent system using the same plate reader.
Data processing within the Genedata software package allows reporting of max fold induction compared to vehicle control, an EC50 value for CYP3A4 inducers and an 11 point-dose response curve.

[3] = Rat IV and PO PK studies; type: in vivo, male Sprague-Dawley rats; conditions: male, Sprague-Dawley, plasma; for bioavailability / AUC: 3 mg/kg, oral; for bioavailability: read-out: Rat po % F; for clearance: intravenous, 3.0 mg/kg, read-out: Rat iv CL
Procedure: 5C. Experimental Protocol for Rat IV and PO PK Studies
[…] […] Analyses of plasma and dose preparations were performed using LC/MS/MS.
Plasma concentration-time profiles of the tested compound in Sprague-Dawley rats at scheduled (nominal) sampling times were analyzed by noncompartmental pharmacokinetic methods using PK function within Watson LIMS software, Version 7.4.2 (Thermo Scientific Inc, Waltham, Mass.). AUC values were calculated using the linear trapezoidal rule.

[4] = target: T1, F508del-CFTR (Homo sapiens (Human), UniProt P13569, DEL508-508); assay: Membrane potential optical (fluorescent voltage sensing dye, FLIPR III) HTS assay for F508del-CFTR modulators; type: cell-based
Procedure, shortened: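 NIH3T3 mouse fibroblasts stably expressing F508del-CFTR were seeded on matrigel-coated plates for 18–24 h at 37 °C. For correction assays they were cultured with or without compound for that period. Membrane potential was read on FLIPR III with voltage-sensing dyes, using a pH 7.4 NaCl/HEPES bath and a chloride-free gluconate substitute solution.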

[5] = target: T1, F508del-CFTR; assay: Ussing chamber chloride transport experiments in HBE cells; type: cell-based; conditions: HBE cells
Procedure: Ussing chamber experiments were performed on polarized airway epithelial cells expressing F508del to further characterize the F508del modulators identified in the optical assays. Non-CF and CF airway epithelia were isolated from bronchial tissue, cultured as previously described (Galietta, L. J. V., Lantero, S., Gazzolo, A., Sacco, O., Romano, L., Rossi, G. A., & Zegarra-Moran, O. (1998) In Vitro Cell. Dev. Biol. 34, 478-481), and plated onto Costar® Snapwell™ filters that were precoated with NIH3T3-conditioned media. After four days the apical media was removed and the cells were grown at an air liquid interface for >14 days prior to use. […] CF-HBE were isolated from patients homozygous for […] or compound heterozygous for F508del with an different disease causing mutation on the other allele.
HBE grown on Costar® Snapwell™ cell culture inserts were mounted in an Ussing chamber (Physiologic Instruments, Inc., San Diego, Calif.), and the transepithelial resistance and short-circuit current in the presence of a basolateral to apical Cl^− gradient (ISC) were measured using a voltage-clamp system (Department of Bioengineering, University of Iowa, Iowa). Briefly, HBE were examined under voltage-clamp recording conditions (Vhold=0 mV) at 37° C. The basolateral solution contained (in mM) 145 NaCl, 0.83 K2HPO4, 3.3 KH2PO4, 1.2 MgCl2, 1.2 CaCl2, 10 Glucose, 10 HEPES (pH adjusted to 7.35 with NaOH) and the apical solution contained (in mM) 145 NaGluconate, 1.2 MgCl2, 1.2 CaCl2, 10 glucose, 10 HEPES (pH adjusted to 7.35 with NaOH).
Typical protocol utilized a basolateral to apical membrane Cl^− concentration gradient. To set up this gradient, normal ringers was used on the basolateral membrane, whereas apical NaCl was replaced by equimolar sodium gluconate (titrated to pH 7.4 with NaOH) to give a large Cl^− concentration gradient across the epithelium. Modulators were added either to the basolateral side […] to assay or to the apical side during the assay. Forskolin (10 μM) was added to the apical side during the assay to stimulate CFTR-mediated Cl^− transport. […]

[6] = F508del NIH 3T3 cells, assay 5A-A1, read-out: CFTRdF508 EC50
[7] = Table 9, read-out: CFTR dF508 EC50

T1 sequence (P13569 other isoform, or with tags, fused parts or gaps del F508-F508): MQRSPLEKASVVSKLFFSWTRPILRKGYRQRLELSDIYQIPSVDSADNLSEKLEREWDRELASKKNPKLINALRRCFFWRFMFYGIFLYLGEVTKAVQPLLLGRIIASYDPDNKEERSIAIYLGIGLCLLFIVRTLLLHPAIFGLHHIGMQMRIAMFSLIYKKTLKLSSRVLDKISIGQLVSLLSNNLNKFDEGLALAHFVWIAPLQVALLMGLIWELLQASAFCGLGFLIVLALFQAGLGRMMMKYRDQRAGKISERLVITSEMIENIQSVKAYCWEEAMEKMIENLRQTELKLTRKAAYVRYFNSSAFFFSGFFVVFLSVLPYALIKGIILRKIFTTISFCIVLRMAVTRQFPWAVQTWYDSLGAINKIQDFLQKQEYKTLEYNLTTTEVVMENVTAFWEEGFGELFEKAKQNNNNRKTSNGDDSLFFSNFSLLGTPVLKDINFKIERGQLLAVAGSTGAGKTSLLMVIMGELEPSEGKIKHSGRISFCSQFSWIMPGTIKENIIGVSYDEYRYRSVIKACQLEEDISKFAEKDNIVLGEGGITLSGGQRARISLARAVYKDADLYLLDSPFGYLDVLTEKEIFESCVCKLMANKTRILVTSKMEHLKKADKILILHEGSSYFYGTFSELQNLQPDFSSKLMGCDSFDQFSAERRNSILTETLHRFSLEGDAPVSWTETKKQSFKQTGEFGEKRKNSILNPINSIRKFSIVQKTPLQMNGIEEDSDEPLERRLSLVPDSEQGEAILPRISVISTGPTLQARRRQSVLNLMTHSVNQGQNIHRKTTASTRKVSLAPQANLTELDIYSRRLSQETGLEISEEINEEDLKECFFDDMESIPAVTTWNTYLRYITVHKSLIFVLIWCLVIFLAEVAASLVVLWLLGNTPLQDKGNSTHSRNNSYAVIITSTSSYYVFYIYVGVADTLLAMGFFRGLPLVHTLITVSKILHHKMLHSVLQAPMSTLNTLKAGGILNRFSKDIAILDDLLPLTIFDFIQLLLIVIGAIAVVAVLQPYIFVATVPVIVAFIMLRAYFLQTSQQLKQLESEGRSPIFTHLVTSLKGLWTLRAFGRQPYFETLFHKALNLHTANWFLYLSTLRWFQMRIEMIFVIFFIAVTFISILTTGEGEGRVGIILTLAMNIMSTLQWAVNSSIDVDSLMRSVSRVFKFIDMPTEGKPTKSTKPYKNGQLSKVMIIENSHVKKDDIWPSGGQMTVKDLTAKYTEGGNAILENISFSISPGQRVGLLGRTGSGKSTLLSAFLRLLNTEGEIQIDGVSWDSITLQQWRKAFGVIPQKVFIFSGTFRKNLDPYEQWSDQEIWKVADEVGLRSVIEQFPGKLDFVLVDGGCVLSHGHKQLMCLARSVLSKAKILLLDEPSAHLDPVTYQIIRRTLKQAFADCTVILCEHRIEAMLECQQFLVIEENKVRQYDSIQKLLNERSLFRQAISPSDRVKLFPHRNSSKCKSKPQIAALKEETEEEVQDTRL
Chain of Human Serum Albumin (HSA) (P02768 25-609): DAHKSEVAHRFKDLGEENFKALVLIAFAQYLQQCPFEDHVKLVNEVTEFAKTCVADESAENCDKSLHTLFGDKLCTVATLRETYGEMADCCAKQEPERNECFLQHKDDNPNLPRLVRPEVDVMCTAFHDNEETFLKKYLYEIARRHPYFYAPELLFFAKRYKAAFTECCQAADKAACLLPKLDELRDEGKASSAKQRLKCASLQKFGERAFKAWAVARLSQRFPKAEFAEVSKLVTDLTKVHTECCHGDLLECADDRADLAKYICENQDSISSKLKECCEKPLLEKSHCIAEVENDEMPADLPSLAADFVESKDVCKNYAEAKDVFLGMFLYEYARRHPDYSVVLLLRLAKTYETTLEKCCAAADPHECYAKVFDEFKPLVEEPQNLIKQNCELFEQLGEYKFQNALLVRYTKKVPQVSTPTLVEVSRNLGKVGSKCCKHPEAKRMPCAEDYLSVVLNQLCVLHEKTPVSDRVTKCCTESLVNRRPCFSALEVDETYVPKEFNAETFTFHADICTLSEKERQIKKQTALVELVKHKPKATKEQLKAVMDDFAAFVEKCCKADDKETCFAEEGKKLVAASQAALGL
Chain of human PXR (O75469 whole entry): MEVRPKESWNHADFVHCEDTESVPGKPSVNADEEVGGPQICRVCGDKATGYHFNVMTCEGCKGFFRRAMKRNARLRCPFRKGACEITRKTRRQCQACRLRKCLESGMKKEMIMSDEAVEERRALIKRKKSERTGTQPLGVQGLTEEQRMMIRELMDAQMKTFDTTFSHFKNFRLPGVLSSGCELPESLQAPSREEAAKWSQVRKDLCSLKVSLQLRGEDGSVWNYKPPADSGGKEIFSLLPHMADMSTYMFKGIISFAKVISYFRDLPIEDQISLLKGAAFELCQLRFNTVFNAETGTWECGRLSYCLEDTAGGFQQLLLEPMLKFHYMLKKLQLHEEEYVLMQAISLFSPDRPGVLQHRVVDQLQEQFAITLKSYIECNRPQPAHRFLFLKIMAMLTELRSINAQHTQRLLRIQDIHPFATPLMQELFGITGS

Row | HSA binding [1] [%] | PXR Max Induction (% of rifampicin) [2] | bioavailability [3] [%] | clearance [3] [mL/min/kg] | AUC [3] [ng·h/mL] | EC50 [4, 6] [nM] | EC50 [4, 7] [nM] | potentiation of F508del-CFTR delivered to the cell surface by Compound I alone or in combination with Compound II [5] | Compound
1 | 97.9 | – | – | – | – | – | – | – | C[C@@H]1CN(c2nc(-n3ccc(OCC4(C(F)(F)F)CC4)n3)ccc2C(=O)NS(=N)(=O)c2ccccc2)C(C)(C)C1 (single isomer, unassigned) [drawing 339]
2 | 98.4 | – | – | – | – | – | – | – | C[C@@H]1CN(c2nc(-n3ccc(OCC4(C(F)(F)F)CC4)n3)ccc2C(=O)NS(=N)(=O)c2ccccc2)C(C)(C)C1 (single isomer, unassigned) [drawing 340]
3 | – | 9 % of rifampicin | 98 | 2.6 | 20000 | < 100 | 70 | – | Cc1ccc(S(=O)(=O)NC(=O)c2ccc(-n3ccc(OCC4(C(F)(F)F)CC4)n3)nc2N2C[C@@H](C)CC2(C)C)cc1 [Compound 24, N-(p-Tolylsulfonyl)-6-[3-[[1-(trifluoromethyl)cyclopropyl]methoxy]pyrazol-1-yl]-2-[(4S)-2,2,4-trimethylpyrrolidin-1-yl]pyridine-3-carboxamide]
4 | – | 4 % of rifampicin | 79 | 3.4 | 9000 | < 100 | 50 | – | C[C@@H]1CN(c2nc(-n3ccc(OCC4C5(CC5)C45CC5)n3)ccc2C(=O)NS(=O)(=O)c2ccccc2)C(C)(C)C1 [Compound 64, N-(Benzenesulfonyl)-6-[3-(dispiro[2.0.2.1]heptan-7-ylmethoxy)pyrazol-1-yl]-2-[(4S)-2,2,4-trimethylpyrrolidin-1-yl]pyridine-3-carboxamide]
5 | – | – | – | – | – | – | – | potentiated | CC(C)(C)c1cc(C(C)(C)C)c(NC(=O)c2c[nH]c3ccccc3c2=O)cc1O [Compound III, N-(5-hydroxy-2,4-di-tert-butyl-phenyl)-4-oxo-1H-quinoline-3-carboxamide, reference compound]
6 | 99.1 | – | – | – | – | – | – | – | C[C@@H]1CN(c2nc(-n3ccc(OCC4(C(F)(F)F)CC4)n3)ccc2C(=O)NS(=O)(=O)c2ccccc2)C(C)(C)C1 [drawing 337]

Second part, the compound before the results:

Row | Compound | HSA binding [1] [%] | PXR Max Induction (% of rifampicin) [2] | bioavailability [3] [%] | clearance [3] [mL/min/kg] | AUC [3] [ng·h/mL] | EC50 [4, 6] [nM] | EC50 [4, 7] [nM] | potentiation of F508del-CFTR delivered to the cell surface by Compound I alone or in combination with Compound II [5]
7 | C[C@@H]1CN(c2nc(-n3ccc(OCC4(C(F)(F)F)CC4)n3)ccc2C(=O)NS(=N)(=O)c2ccccc2)C(C)(C)C1 (mixture of isomers) | 98.1 | – | – | – | – | – | – | –
8 | C[C@@H]1CN(c2nc(-n3ccc(OCC4(C(F)(F)F)CC4)n3)ccc2C(=O)NS(=O)(=O)c2ccccc2)C(C)(C)C1 [Compound 14, N-(Benzenesulfonyl)-6-[3-[[1-(trifluoromethyl)cyclopropyl]methoxy]pyrazol-1-yl]-2-[(4S)-2,2,4-trimethylpyrrolidin-1-yl]pyridine-3-carboxamide] | – | 19 % of rifampicin | 58 | 2 | 14700 | < 100 | 40 | –
9 | C[C@@H]1CN(c2nc(-n3ccc(OCC4C(C)(C)C4(C)C)n3)ccc2C(=O)NS(=O)(=O)c2cccc(F)c2)C(C)(C)C1 [Compound 16, N-(3-Fluorophenyl)sulfonyl-6-[3-[(2,2,3,3-tetramethylcyclopropyl)methoxy]pyrazol-1-yl]-2-[(4S)-2,2,4-trimethylpyrrolidin-1-yl]pyridine-3-carboxamide] | – | 2 % of rifampicin | 12 | 24.8 | 250 | < 100 | 20 | –
10 | C[C@@H]1CN(c2nc(-n3ccc(OCC4(C(F)(F)F)CC4)n3)ccc2C(=O)NS(=O)(=O)c2ccc(O)cc2)C(C)(C)C1 [Compound 22, N-(4-Hydroxyphenyl)sulfonyl-6-[3-[[1-(trifluoromethyl)cyclopropyl]methoxy]pyrazol-1-yl]-2-[(4S)-2,2,4-trimethylpyrrolidin-1-yl]pyridine-3-carboxamide] | – | 4 % of rifampicin | 31 | 6.7 | 3600 | 100 to 1000 | 120 | –
11 | Cc1ccccc1S(=O)(=O)NC(=O)c1ccc(-n2ccc(OCC3(C(F)(F)F)CC3)n2)nc1N1C[C@@H](C)CC1(C)C [Compound 23, N-(o-Tolylsulfonyl)-6-[3-[[1-(trifluoromethyl)cyclopropyl]methoxy]pyrazol-1-yl]-2-[(4S)-2,2,4-trimethylpyrrolidin-1-yl]pyridine-3-carboxamide] | – | 22 % of rifampicin | 69 | 2.7 | 12500 | < 100 | 30 | –
